Results as given in patent US20080194585A1, “Fungicidal Pyrazine Derivatives” (priority 2005, published 2008).
Marks after values point to notes of the source that are not given here.

How the values were obtained:
Botrytis cinerea = test: Test E: tomato botrytis, preventive spray on tomato seedlings
fusarium graminearium = test: Test I: wheat head scab, preventive spray on wheat seedlings
Method: (the causal agent of wheat head scab) and incubated in a saturated atmosphere at 20° C. for 72 h, and then moved to a growth chamber at 22° C. for 5 days, after which disease ratings were made.

[1] = tested on: Colletotrichum orbiculare; test: Test B: cucumber Colletotrichum anthracnose, preventive spray on cucumber seedlings
Plasmopara viticola = test: Test D: grape downy mildew, spray after inoculation of grape seedlings; type: in vivo
Excerpt: Upon removal, disease ratings were made. […] A dash (-) indicates no test results.

[2] = tested on: Puccinia recondita f. sp. tritici; test: Test K: wheat leaf rust, preventive spray on wheat seedlings
Rhizoctonia oryzae = test: Test G: turf brown patch, preventive spray on creeping bent grass seedlings
Method: (the causal agent of turf brown patch) and incubated in a saturated atmosphere at 27° C. for 24 h, and then moved to a growth chamber at 27° C. for 5 days, after which disease ratings were made.

Pythium aphanidermatum = test: Test A: bluegrass pythium blight, preventive spray on bluegrass seedlings
Septoria tritici = test: Test J: wheat leaf blotch, preventive spray on wheat seedlings; type: in vivo
Excerpt: A dash (-) indicates no test results.

Phytophthora infestans = test: whole plant or invertebrate; type: in vivo
Sclerotinia sclerotiorum = test: Test C: cucumber white mold, preventive spray on cucumber seedlings
[3] = tested on: Erysiphe graminis f. sp. tritici; test: Test L: wheat powdery mildew, preventive spray on wheat seedlings
Septoria nodorum = test: Test H: wheat glum blotch, preventive spray on wheat seedlings
Method: (the causal agent of wheat glum blotch) and incubated in a saturated atmosphere at 20° C. for 48 h, and then moved to a growth chamber at 22° C. for 5 days, after which disease ratings were made.

[4] = 200 ppm, 100 = 100% disease control, 0 = no control

Structure (SMILES)	Test E disease control rating (Botrytis cinerea; 40 ppm (*))	Test I disease control rating (fusarium graminearium; 40 ppm (*))	Test B disease control rating ([1]; 40 ppm (*))	Test D disease control rating (Plasmopara viticola; 40 ppm (*))	Test K disease control rating ([2]; 40 ppm (*))	Test G disease control rating (Rhizoctonia oryzae; 40 ppm (*))	Test A disease control rating (Pythium aphanidermatum; 40 ppm (*))	Test J disease control rating (Septoria tritici; 40 ppm (*))	Test F disease control rating (Phytophthora infestans; 40 ppm (*))	Test C disease control rating (Sclerotinia sclerotiorum; 40 ppm (*))	Test L disease control rating ([3]; 40 ppm (*))	Test H disease control rating (Septoria nodorum; 40 ppm (*))	other results
CC(C)Cn1c(-c2ccccc2)c(Cl)nc(-n2cccn2)c1=O [compound 172]	07* %	0* %	0* %	0* %	0* %	41* %	0* %	64* %	57* %	0* %	0* %	0* %	–
CC(C)Cn1c(-c2ccccc2)c(Cl)nc(-n2cncn2)c1=O [compound 173]	0* %	0* %	0* %	0* %	0* %	0* %	0* %	45* %	0* %	0* %	0* %	0* %	–
COc1ccccc1-c1c(Cl)nc(-n2cncn2)c(=O)n1CC(C)C [compound 177]	0* %	0* %	0* %	0* %	0* %	0* %	0* %	7* %	0* %	0* %	0* %	0* %	–
CC(C)Cn1c(-c2cccc(F)c2)c(Cl)nc(-n2cncn2)c1=O [compound 230]	82* %	0* %	0* %	0* %	0* %	0* %	0* %	24* %	0* %	0* %	0* %	0* %	–
CC(C)Cn1c(-c2cccc(F)c2)c(Cl)nc(-n2cccn2)c1=O [compound 231]	99* %	0* %	0* %	0* %	28* %	0* %	0* %	89* %	0* %	0* %	0* %	0* %	–
CC(C)Cn1c(-c2cccc(C(F)(F)F)c2)c(Cl)nc(-n2cncn2)c1=O [compound 232]	0* %	0* %	0* %	0* %	0* %	0* %	0* %	0* %	0* %	0* %	0* %	0* %	–
CC(C)Cn1c(-c2cccc(C(F)(F)F)c2)c(Cl)nc(-n2cccn2)c1=O [compound 233]	0* %	0* %	0* %	0* %	0* %	0* %	0* %	0* %	0* %	0* %	0* %	0* %	–
CC(C)Cn1c(-c2cccc(Br)c2)c(Cl)nc(-n2cncn2)c1=O [compound 234]	0* %	0* %	0* %	0* %	0* %	0* %	0* %	0* %	0* %	0* %	0* %	0* %	–
CC(C)Cn1c(-c2cccnc2)c(Cl)nc(-n2cncn2)c1=O [compound 235]	0* %	0* %	0* %	0* %	0* %	0* %	45* %	0* %	0* %	0* %	0* %	0* %	–
CC(C)Cn1c(-c2cccnc2Cl)c(Cl)nc(-n2cncn2)c1=O [compound 236]	0* %	0* %	0* %	0* %	0* %	0* %	0* %	0* %	0* %	0* %	0* %	0* %	–
CC(C)Cn1c(-c2cccnc2)c(Cl)nc(-n2cccn2)c1=O [compound 237]	0* %	0* %	0* %	0* %	0* %	0* %	0* %	24* %	0* %	0* %	0* %	0* %	–
CC(CF)n1c(-c2c(F)cccc2F)c(Cl)nc(-n2cccn2)c1=O (stereo not drawn) [compound 238]	99* %	0* %	63* %	0* %	100* %	93* %	0* %	96* %	0* %	0* %	74* %	98* %	–
Cc1ccn(-c2nc(Br)c(-c3c(F)cccc3F)n(CC(C)C)c2=O)n1 [compound 242]	100* %	0* %	73* %	0* %	92* %	82* %	0* %	100* %	0* %	0* %	99* %	94* %	–
Cc1ccn(-c2nc(Cl)c(-c3cccc4c3OCO4)n(CC(C)C)c2=O)n1 [compound 255]	–	–	–	–	–	–	–	–	–	–	–	–	Test E disease control rating (Botrytis cinerea; [4]): 99%; Test I disease control rating (fusarium graminearium; [4]): 0%; Test B disease control rating [1, 4]: 0%; Test D disease control rating (Plasmopara viticola; [4]): 0%; Test K disease control rating [2, 4]: 61%; Test G disease control rating (Rhizoctonia oryzae; [4]): 0%; Test A disease control rating (Pythium aphanidermatum; [4]): 0%; Test J disease control rating (Septoria tritici; [4]): 71%; Test F disease control rating (Phytophthora infestans; [4]): 0%; Test C disease control rating (Sclerotinia sclerotiorum; [4]): 0%; Test L disease control rating [3, 4]: 0%; Test H disease control rating (Septoria nodorum; [4]): 0%
Cc1ccn(-c2nc(Cl)c(-c3ccc4c(c3)OC(F)(F)O4)n(CC(C)C)c2=O)n1 [compound 256]	–	–	–	–	–	–	–	–	–	–	–	–	Test E disease control rating (Botrytis cinerea; [4]): 0%; Test I disease control rating (fusarium graminearium; [4]): 0%; Test B disease control rating [1, 4]: 0%; Test D disease control rating (Plasmopara viticola; [4]): 0%; Test K disease control rating [2, 4]: 0%; Test G disease control rating (Rhizoctonia oryzae; [4]): 0%; Test A disease control rating (Pythium aphanidermatum; [4]): 0%; Test J disease control rating (Septoria tritici; [4]): 38%; Test F disease control rating (Phytophthora infestans; [4]): 0%; Test C disease control rating (Sclerotinia sclerotiorum; [4]): 0%; Test L disease control rating [3, 4]: 0%; Test H disease control rating (Septoria nodorum; [4]): 0%
Cc1ccn(-c2nc(Cl)c(-c3cc4c(cc3Cl)OCO4)n(CC(C)C)c2=O)n1 [compound 257]	–	–	–	–	–	–	–	–	–	–	–	–	Test E disease control rating (Botrytis cinerea; [4]): 99%; Test I disease control rating (fusarium graminearium; [4]): 0%; Test B disease control rating [1, 4]: 0%; Test D disease control rating (Plasmopara viticola; [4]): 0%; Test K disease control rating [2, 4]: 74%; Test G disease control rating (Rhizoctonia oryzae; [4]): 0%; Test A disease control rating (Pythium aphanidermatum; [4]): 81%; Test J disease control rating (Septoria tritici; [4]): 71%; Test F disease control rating (Phytophthora infestans; [4]): 0%; Test C disease control rating (Sclerotinia sclerotiorum; [4]): 0%; Test L disease control rating [3, 4]: 0%; Test H disease control rating (Septoria nodorum; [4]): 0%
